Values quoted from earlier work as cited in PMC6182381, “Population Pharmacokinetics and Exposure-Response Relationships of Naldemedine” (Pharmaceutical Research, 2018).
Read-outs that look alike come from different tables or passages of the source.

Columns and labels:
[1] = system: patients with chronic non-cancer pain and OIC; set-up: method as in PMID 28371937; settings: Phase 2b, cited from earlier work
[2] = system: patients with chronic non-cancer pain and OIC; set-up: method as in PMID 28576452; settings: cited from earlier work

CC(C)(NC(=O)C1=C(O)[C@@H]2Oc3c(O)ccc4c3[C@@]23CCN(CC2CC2)[C@H](C4)[C@]3(O)C1)c1nc(-c2ccccc2)no1 [naldemedine]
Treatment-emergent adverse events ([1]; 0.1 mg): 66.1%
Treatment-emergent adverse events ([1]; 0.2 mg): 67.2%
Treatment-emergent adverse events ([1]; 0.4 mg): 78.6%
Treatment-related adverse events (patients) ([2]; Study 1314 V9231, 59 of 271 patients): 22%
Treatment-related adverse events (patients) ([2]; Study 1315 V9232, 54 of 271 patients): 20%
